Experimental data from patent US20170196998A1, “NANOPARTICLE CONTRAST AGENT FOR EARLY DIAGNOSIS OF ALZHEIMER'S DISEASE BY MAGNETIC RESONANCE IMAGING (MRI)” (The Chinese University of Hong Kong, priority 2016, published 2017).

How the values were obtained:
amyloid plaques = amyloid plaques (Homo sapiens, UniProt P05067); assay: Confocal fluorescent and phase-contrast imaging of amyloid plaque binding on consecutive brain sections; conditions: applied to consecutive sections of APP transgenic mouse brain, FIG. 5
Excerpt: From top to bottom: Thioflavin T, curcumin, and curcumin-conjugated iron oxide.
The formulation of Curcumin-conjugated magnetic nanoparticles is described herein.

[1] = Adsorption isotherm of curcumin on iron oxide (Langmuir model); type: physicochemical; conditions: room temperature, monolayer
Method: Based on the absorption isotherm study, curcumin preferentially binds the iron oxide surface, with a calculated maximum loading of 75 mg of curcumin per gram of iron oxide. FIGS. 2 & 3 show the adsorption isotherm and Langmuir model, which indicate that Curcumin is forming a monolayer and binds at a homogeneous site on the iron oxide surface.

Chain of amyloid plaques (P05067 672-713 limits assumed): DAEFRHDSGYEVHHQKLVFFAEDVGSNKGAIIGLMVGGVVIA

calculated maximum loading of curcumin on iron oxide [1]	Compound	amyloid plaque binding (amyloid plaques)
	Cc1ccc2c(c1)sc(-c1ccc(N(C)C)cc1)[n+]2C.[Cl-] [Thioflavin T]	bind amyloid plaques
75 mg of curcumin per gram of iron oxide	COc1cc(/C=C/C(=O)CC(=O)/C=C/c2ccc(O)c(OC)c2)ccc1O [curcumin]	bind amyloid plaques
